Experimental data as given in patent publication US11072636B2, “Peptide for inhibiting angiogenesis and use thereof” (CAREGEN CO., LTD., priority 2017, dated 2021).

Legend:
[1] = tested on: human umbilical vein endothelial cells (HUVEC); assay: Inhibition of proliferation of vascular endothelial cells (MTT analysis); assay type: cell-based; settings: VEGF 20 ng/ml, 1% serum, 3 days, MTT absorbance 560 nm, FIGS. 1 and 2
Experimental: In order to confirm an effect of inhibiting the proliferation of vascular endothelial cells, the peptides prepared in Preparation Example 1 were treated to vascular endothelial cells, respectively, and then MTT analysis was performed.
Specifically, human umbilical vein endothelial cells (HUVEC) were inoculated in a 96-well plate at a density of 4×10^3 cells/well and then incubated overnight. Thereafter, after the medium was changed to a medium added with 1% serum, a VEGF (20 ng/ml) and the peptide of the present invention were treated for each concentration, respectively, and incubated for 3 days. However, 2 μm of sunitinib was used as a positive control group.
In addition, in order to confirm the effect of inhibiting the proliferation, 4 mg/ml of a thiozolyl blue tetrazolium bromide (MTT) solution was added to each well, formazan generated after reaction for 4 hours was dissolved by DMSO treatment, and then the absorbance was measured at a wavelength of 560 nm using a microplate reader. However, the measured absorbance values were shown by calculating relative rates based on an untreated control group.

HUVEC cells = assay: Inhibition of differentiation of vascular endothelial cells (tube formation assay); assay type: cell-based, human; settings: VEGF 20 ng/ml, serum-free, 1 day, FIGS. 3 and 4
Experimental: In order to confirm the effect of inhibiting the differentiation of vascular endothelial cells, the two peptides prepared in Preparation Example 1 were treated to the vascular endothelial cells, respectively, and then a tube formation assay was performed.
Specifically, HUVEC cells were inoculated in a 96-well plate at a density of 1.5×10^3 cells/well and incubated overnight, and then the medium was replaced with serum-free media, and then a VEGF (20 ng/ml) and the peptide of the present invention were treated by concentration and incubated for 1 day. However, 2 μm of sunitinib was used as a positive control group. After the incubation was completed, the measurement of tube formation was visually observed using an optical microscope, and the number of nodules was measured together.

VEGF receptor (VEGFR2) = assay: Inhibition of cell signaling pathway induced by VEGF: phosphorylation of VEGFR2; assay type: cell-based; settings: vascular endothelial cells; FIGS. 5 and 6
Experimental: (§1) Further, in order to confirm the effect of inhibiting a cell signaling pathway induced by the VEGFs by the peptides of the present invention, in a specific exemplary embodiment of the present invention, a peptide having an amino acid sequence of SEQ ID NO: 1 or SEQ ID NO: 2 was treated to vascular endothelial cells and then changes in phosphorylation of a VEGF receptor (VEGFR2), ERK, AKT and p38 induced by the VEGF were confirmed.

ERK = assay: Inhibition of cell signaling pathway induced by VEGF: phosphorylation of ERK; assay type: cell-based; settings: vascular endothelial cells; FIGS. 5 and 6
Experimental: as §1

AKT = assay: Inhibition of cell signaling pathway induced by VEGF: phosphorylation of AKT; assay type: cell-based; settings: vascular endothelial cells; FIGS. 5 and 6
Experimental: as §1

p38 = assay: Inhibition of cell signaling pathway induced by VEGF: phosphorylation of p38; assay type: cell-based; settings: vascular endothelial cells; FIGS. 5 and 6
Experimental: as §1

eNOS = assay: Expression level of vascular endothelial cell migration marker eNOS; assay type: cell-based; settings: vascular endothelial cells; FIGS. 7 and 8
From the text: In addition, in order to confirm an effect of inhibiting the migration the vascular endothelial cells by the peptides of the present invention, in a specific exemplary embodiment of the present invention, a change in expression level of a vascular endothelial cell migration marker ‘eNOS’ was confirmed depending on treatment of the peptide having the amino acid sequence of SEQ ID NO: 1 or SEQ ID NO: 2 to the vascular endothelial cells.

BAX protein = assay: Expression level of pro-apoptotic BAX protein; assay type: cell-based; settings: vascular endothelial cells, expression reduced by the VEGF; FIGS. 9 and 10
VEGFR2 = VEGFR2 (Homo sapiens, UniProt P35968); assay: Competitive binding to the VEGF receptor; settings: FIGS. 11 to 14
Sequence of VEGFR2 (P35968 20-1356, species assumed): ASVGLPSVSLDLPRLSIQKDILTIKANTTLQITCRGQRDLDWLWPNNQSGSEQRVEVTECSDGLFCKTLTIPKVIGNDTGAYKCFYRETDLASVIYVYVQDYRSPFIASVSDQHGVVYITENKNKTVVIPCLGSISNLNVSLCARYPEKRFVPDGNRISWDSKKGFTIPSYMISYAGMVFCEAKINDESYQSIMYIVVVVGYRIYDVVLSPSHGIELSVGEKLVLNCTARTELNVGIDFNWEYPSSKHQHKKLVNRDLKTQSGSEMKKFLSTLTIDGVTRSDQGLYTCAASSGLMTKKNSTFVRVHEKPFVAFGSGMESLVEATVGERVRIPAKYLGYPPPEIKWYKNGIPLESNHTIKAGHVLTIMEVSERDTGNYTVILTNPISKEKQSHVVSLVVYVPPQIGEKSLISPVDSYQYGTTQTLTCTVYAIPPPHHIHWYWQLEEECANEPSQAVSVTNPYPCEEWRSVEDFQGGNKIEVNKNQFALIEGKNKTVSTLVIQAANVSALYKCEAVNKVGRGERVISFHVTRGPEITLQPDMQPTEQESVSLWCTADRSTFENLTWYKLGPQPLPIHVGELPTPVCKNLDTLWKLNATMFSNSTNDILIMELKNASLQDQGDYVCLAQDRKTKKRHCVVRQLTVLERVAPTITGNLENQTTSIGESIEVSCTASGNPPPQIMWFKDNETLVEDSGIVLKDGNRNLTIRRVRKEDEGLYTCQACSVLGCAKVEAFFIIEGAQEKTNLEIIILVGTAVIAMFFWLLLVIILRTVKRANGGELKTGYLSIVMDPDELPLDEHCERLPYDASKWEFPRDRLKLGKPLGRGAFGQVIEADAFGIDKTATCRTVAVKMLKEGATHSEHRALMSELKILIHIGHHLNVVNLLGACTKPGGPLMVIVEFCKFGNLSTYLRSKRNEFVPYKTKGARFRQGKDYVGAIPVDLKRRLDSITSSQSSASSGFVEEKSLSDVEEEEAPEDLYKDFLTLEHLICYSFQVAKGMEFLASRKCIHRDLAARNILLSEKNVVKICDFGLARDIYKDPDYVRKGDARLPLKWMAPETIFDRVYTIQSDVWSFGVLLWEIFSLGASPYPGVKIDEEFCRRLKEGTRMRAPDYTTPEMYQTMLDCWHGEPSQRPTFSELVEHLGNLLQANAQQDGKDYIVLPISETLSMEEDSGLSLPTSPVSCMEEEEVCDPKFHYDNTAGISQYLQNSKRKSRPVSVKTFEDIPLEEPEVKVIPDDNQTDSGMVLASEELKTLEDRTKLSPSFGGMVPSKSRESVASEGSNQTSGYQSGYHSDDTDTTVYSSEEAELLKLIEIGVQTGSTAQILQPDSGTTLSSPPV

Row | Sequence | proliferation of vascular endothelial cells increased by the VEGF [1] | differentiation (tube formation) of vascular endothelial cells (HUVEC cells) | phosphorylation of VEGFR2 induced by the VEGF (VEGF receptor (VEGFR2)) | phosphorylation of ERK induced by the VEGF (ERK) | phosphorylation of AKT induced by the VEGF (AKT) | phosphorylation of p38 induced by the VEGF (p38) | eNOS expression increased by VEGF treatment (eNOS) | expression of the BAX protein (BAX protein) | binding to the VEGF receptor in competition with the VEGF (VEGFR2)
1 | IHGTYKELL (Peptide 2) [SEQ ID NO: 2] | reduced | reduced | significantly inhibited | significantly inhibited | significantly inhibited | significantly inhibited | decrease concentration-dependently | increased concentration-dependently | bind to a VEGFR2 competitively with the VEGF
2 | NKNFGYDLYR (Peptide 1) [SEQ ID NO: 1] | reduced | reduced | significantly inhibited | significantly inhibited | significantly inhibited | significantly inhibited | decrease concentration-dependently | increased concentration-dependently | bind to a VEGFR2 competitively with the VEGF
